The values that follow come from patent US20240279215A1 (Cytokinetics, Incorporated, priority 2022, published 2024).

The assay has as its target human NAMPT (Homo sapiens (Human), UniProt P43490). As to the kind of experiment: NMN fluorescence biochemical assay (human recombinant NAMPT enzyme assay). The essentials:
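Activation of recombinant human NAMPT (6 nM) was tested with 2.5 mM ATP, 20 μM PRPP and 150 μM nicotinamide in 50 mM HEPES pH 7.2 for 60 min at ambient temperature. NMN was derivatized with acetophenone/KOH/formic acid and read by fluorescence (355/460 nm) after 40 min.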

human NAMPT, sequence (P43490 whole entry): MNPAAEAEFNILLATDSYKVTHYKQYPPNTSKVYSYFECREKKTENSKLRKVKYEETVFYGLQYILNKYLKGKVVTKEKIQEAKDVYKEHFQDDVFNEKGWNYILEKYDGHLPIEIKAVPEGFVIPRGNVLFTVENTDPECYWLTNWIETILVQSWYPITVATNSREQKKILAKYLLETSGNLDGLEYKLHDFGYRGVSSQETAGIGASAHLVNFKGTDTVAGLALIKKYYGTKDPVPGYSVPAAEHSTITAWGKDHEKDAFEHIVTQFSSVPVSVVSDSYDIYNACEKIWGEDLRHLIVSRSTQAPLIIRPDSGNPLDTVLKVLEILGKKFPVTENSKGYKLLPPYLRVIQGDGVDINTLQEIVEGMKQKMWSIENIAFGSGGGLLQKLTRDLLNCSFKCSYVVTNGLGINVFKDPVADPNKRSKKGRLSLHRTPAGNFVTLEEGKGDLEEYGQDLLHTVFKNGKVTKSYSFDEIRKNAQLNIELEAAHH

Turning to `COC(=O)N1CCC(CCc2ccc(NC(=O)OCc3cnco3)cc2)CC1` [Compound 120, methyl 4-(4-(((oxazol-5-ylmethoxy)carbonyl)amino)phenethyl)piperidine-1-carboxylate], the “AC1.4 Human” value turned out to be 0.96 µM and the EC50 was 44.9 µM.
Take `O=C(Nc1ccc(CC2CCN(C(=O)C3CCC3)CC2)cc1)OCc1cnco1` [Compound 469, oxazol-5-ylmethyl (4-((1-(cyclobutanecarbonyl)piperidin-4-yl)methyl)phenyl)carbamate]: the “AC1.4 Human” value is 0.24 µM and the EC50 stood at 26.1 µM.
The like results for `C[C@H](NC(=O)c1cnco1)c1ccc(NC(=O)OCc2ccc(Cl)cc2)cc1` [Compound 246, 4-chlorobenzyl (S)-(4-(1-(oxazole-5-carboxamido)ethyl)phenyl)carbamate] were, in that order, 2.43 µM and 6.14 µM.
The like results for `O=C(Nc1ccc(CC(=O)N2CCN(CC(F)F)CC2)cc1)OCc1ccc(Cl)cc1` [Compound 282, (4-chlorophenyl)methyl N-(4-{2-[4-(2,2-difluoroethyl)piperazin-1-yl]-2-oxoethyl}phenyl)carbamate] were, in that order, 3.57 µM and 19.1 µM.
The like results for `COC(=O)N1CCC(Cc2ccc(NC(=O)OCc3cnco3)cc2)CC1` [Compound 11, methyl 4-(4-(((oxazol-5-ylmethoxy)carbonyl)amino)benzyl)piperidine-1-carboxylate] were, in that order, 0.21 µM and 22.5 µM.
For `O=C(Nc1ccc(CC2CC3CCC(C2)N3C(=O)N2CCC2)cc1)OCc1cnco1` (stereo not shown) [Compound 392, oxazol-5-ylmethyl (4-((8-(azetidine-1-carbonyl)-8-azabicyclo[3.2.1]octan-3-yl)methyl)phenyl)carbamate], the “AC1.4 Human” value amounted to 0.13 µM and the EC50 was found to be 6.9 µM.
As for `C[C@H](NC(=O)c1ccnn1C1CCC1)c1ccc(NC(=O)OCc2ccc(Cl)cc2)cc1` [Compound 210, (4-chlorophenyl)methyl N-{4-[(1S)-1-[(2-cyclobutylpyrazol-3-yl)formamido]ethyl]phenyl}carbamate], the “AC1.4 Human” value is 1.91 µM and the EC50 is 3.82 µM.
As to `CC(=O)N1CCC(Cc2ccc(NC(=O)OCc3cnco3)cc2)CC12CC2` (stereo not shown) [Compound 444, oxazol-5-ylmethyl (4-((4-acetyl-4-azaspiro[2.5]octan-7-yl)methyl)phenyl)carbamate], the “AC1.4 Human” value was found to be 0.13 µM and the EC50 is 6.31 µM.
Take `Cc1ccc(C(=O)NCc2ccc(NC(=O)OCc3ccc(Cl)cc3)cc2)nc1` [Compound 214, (4-chlorophenyl)methyl N-(4-{[(5-methylpyridin-2-yl)formamido]methyl}phenyl)carbamate]: the “AC1.4 Human” value is 1.96 µM and the EC50 turned out to be 9.59 µM.
The like results for `O=C(Nc1ccc(C2CCS(=O)(=O)CC2)cc1)OCc1ccc(Cl)cc1` [Compound 151] were, in that order, 1.25 µM and 5.89 µM.
For `O=C(Nc1ccc(CC2CCN(CC(F)(F)F)CC2)cc1)OCc1cncs1` [Compound 467, thiazol-5-ylmethyl (4-((1-(2,2,2-trifluoroethyl)piperidin-4-yl)methyl)phenyl)carbamate], the “AC1.4 Human” value came out at 1.07 µM and the EC50 turned out to be 14.5 µM.
`CC1(C)CCN1C(=O)Cc1ccc(NC(=O)OCc2ccc(Cl)cc2)cc1` [Compound 183, (4-chlorophenyl)methyl N-{4-[2-(2,2-dimethylazetidin-1-yl)-2-oxoethyl]phenyl}carbamate]: the “AC1.4 Human” value was 1.57 µM and the EC50 came to 15.2 µM.
On to `COc1cnn(C)c1C(=O)N(C)Cc1ccc(NC(=O)OCc2ccc(Cl)cc2)cc1` [Compound 253, (4-chlorophenyl)methyl N-(4-{[1-(4-methoxy-2-methylpyrazol-3-yl)-N-methylformamido]methyl}phenyl)carbamate], for which the “AC1.4 Human” value was determined as 2.62 µM and the EC50 came out at 17.9 µM.
`CCn1nccc1C(=O)NCc1ccc(NC(=O)OCc2ccc(Cl)cc2)cc1` [Compound 167, (4-chlorophenyl)methyl N-(4-{[(2-ethylpyrazol-3-yl)formamido]methyl}phenyl)carbamate]: the “AC1.4 Human” value amounted to 1.39 µM and the EC50 amounted to 4.54 µM.
`COc1nc(C)ccc1C(=O)NCc1ccc(NC(=O)OCc2ccc(Cl)cc2)cc1` [Compound 245, (4-chlorophenyl)methyl N-(4-{[(2-methoxy-6-methylpyridin-3-yl)formamido]methyl}phenyl)carbamate]: the “AC1.4 Human” value is 2.39 µM and the EC50 was determined as 6.35 µM.
Regarding `O=C(Nc1ccc(CC2CC3CCC(C2)N3C(=O)N2CCOCC2)cc1)OCc1cnco1` (stereo not shown) [Compound 389, oxazol-5-ylmethyl (4-((8-(morpholine-4-carbonyl)-8-azabicyclo[3.2.1]octan-3-yl)methyl)phenyl)carbamate], the “AC1.4 Human” value is 0.09 µM and the EC50 was found to be 3.75 µM.
`COC(=O)N1CCN(C(=O)Cc2ccc(NC(=O)OCc3ccc(Cl)cc3)cc2)CC1` [Compound 156, methyl 4-(2-(4-((((4-chlorobenzyl)oxy)carbonyl)amino)phenyl)acetyl)piperazine-1-carboxylate]: the “AC1.4 Human” value is 1.31 µM and the EC50 was determined as 9.45 µM.
`CC(=O)N1CCC(OCc2ccc(NC(=O)OCc3ccc(Cl)cc3)cc2)CC1` [Compound 93, 4-chlorobenzyl (4-(((1-acetylpiperidin-4-yl)oxy)methyl)phenyl)carbamate]: the “AC1.4 Human” value stood at 0.75 µM and the EC50 stood at 6.8 µM.
For the compound `Cc1cnc(C(=O)N[C@@H](C)c2ccc(NC(=O)OCc3ccc(Cl)cc3)cc2)o1` [Compound 267, 4-chlorobenzyl (S)-(4-(1-(5-methyloxazole-2-carboxamido)ethyl)phenyl)carbamate], the “AC1.4 Human” value was 3.04 µM and the EC50 is 36.5 µM.
Consider `O=C(Nc1ccc(CNC(=O)C2COC2)cc1)OCc1ccc(Cl)cc1` [Compound 310, (4-chlorophenyl)methyl N-{4-[(oxetan-3-ylformamido)methyl]phenyl}carbamate], for which the “AC1.4 Human” value came out at 5.29 µM and the EC50 was 32.8 µM.
With `C[C@H]1CCN(C(=O)Cc2ccc(NC(=O)OCc3ccc(Cl)cc3)cc2)C1` [Compound 244, (4-chlorophenyl)methyl N-(4-{2-[(3S)-3-methylpyrrolidin-1-yl]-2-oxoethyl}phenyl)carbamate], the “AC1.4 Human” value came to 2.39 µM and the EC50 is 5.67 µM.
As to `COC(=O)N1CC2(CC(Cc3ccc(NC(=O)OCc4cnco4)cc3F)C2)C1` [Compound 396, methyl 6-(2-fluoro-4-(((oxazol-5-ylmethoxy)carbonyl)amino)benzyl)-2-azaspiro[3.3]heptane-2-carboxylate], the “AC1.4 Human” value was found to be 0.11 µM and the EC50 is 6.78 µM.
In the case of `CN(C)S(=O)(=O)N1CCC(Cc2ccc(NC(=O)OCc3ccc(Cl)cc3)cc2)CC1` [Compound 34, 4-chlorobenzyl (4-((1-(N,N-dimethylsulfamoyl)piperidin-4-yl)methyl)phenyl)carbamate], the “AC1.4 Human” value was determined as 0.38 µM and the EC50 stood at 0.82 µM.
For `Cc1n[nH]c(C)c1C(=O)N(C)Cc1ccc(NC(=O)OCc2ccc(Cl)cc2)cc1` [Compound 206, (4-chlorophenyl)methyl N-(4-{[1-(3,5-dimethyl-1H-pyrazol-4-yl)-N-methylformamido]methyl}phenyl)carbamate], the “AC1.4 Human” value amounted to 1.85 µM and the EC50 came out at 14.7 µM.
As for `O=C(Nc1ccc(CC2CCN(C3COC3)C3CC23)cc1)OCc1cnco1` (stereo not shown) [Compound 455, oxazol-5-ylmethyl (4-((2-(oxetan-3-yl)-2-azabicyclo[4.1.0]heptan-5-yl)methyl)phenyl)carbamate], the “AC1.4 Human” value was 0.84 µM and the EC50 stood at 32.4 µM.
In the case of `Cc1cnc(C(=O)NCc2ccc(NC(=O)OCc3ccc(Cl)cc3)cc2)cn1` [Compound 136, (4-chlorophenyl)methyl N-(4-{[(5-methylpyrazin-2-yl)formamido]methyl}phenyl)carbamate], the “AC1.4 Human” value worked out at 1.09 µM and the EC50 was determined as 2.23 µM.
As to `COc1cc(C(=O)N(C)Cc2ccc(NC(=O)OCc3ccc(Cl)cc3)cc2)n(C)n1` [Compound 90, (4-chlorophenyl)methyl N-(4-{[1-(5-methoxy-2-methylpyrazol-3-yl)-N-methylformamido]methyl}phenyl)carbamate], the “AC1.4 Human” value came out at 0.72 µM and the EC50 was found to be 7.32 µM.
With `Cc1nc(C)c(C(=O)NCc2ccc(NC(=O)OCc3ccc(Cl)cc3)cc2)o1` [Compound 211, (4-chlorophenyl)methyl N-(4-{[(2,4-dimethyl-1,3-oxazol-5-yl)formamido]methyl}phenyl)carbamate], the “AC1.4 Human” value is 1.91 µM and the EC50 amounted to 10.6 µM.
Consider `COC(=O)N1CCC[C@@H](c2ccc(NC(=O)OCc3cnco3)cc2)C1` [Compound 383, methyl (S)-3-(4-(((oxazol-5-ylmethoxy)carbonyl)amino)phenyl)piperidine-1-carboxylate], for which the “AC1.4 Human” value came to 2.58 µM and the EC50 came to 20.3 µM.
In the case of `O=C(Nc1ccc(CC(=O)N2CCOCC2)cc1)OCc1ccc(Cl)cc1` [Compound 220, (4-chlorophenyl)methyl N-{4-[2-(morpholin-4-yl)-2-oxoethyl]phenyl}carbamate], the “AC1.4 Human” value is 2.03 µM and the EC50 was determined as 32.5 µM.
As to `O=C(Cc1cnoc1)NCc1ccc(NC(=O)OCc2ccc(Cl)cc2)cc1` [Compound 330, (4-chlorophenyl)methyl N-(4-{[2-(1,2-oxazol-4-yl)acetamido]methyl}phenyl)carbamate], the “AC1.4 Human” value amounted to 8.66 µM and the EC50 is 46.3 µM.
For the compound `O=C(Nc1ccc(CNC(=O)c2cnccn2)cc1)OCc1ccc(Cl)cc1` [Compound 226, (4-chlorophenyl)methyl N-{4-[(pyrazin-2-ylformamido)methyl]phenyl}carbamate], the “AC1.4 Human” value was 2.09 µM and the EC50 amounted to 6.14 µM.

What is called EC50 is the concentration at which the effect is half-maximal.
